# According to patent US20230072683A1, “PYRIDO-PYRIMIDIN DERIVATIVES AND PHARMACEUTICAL COMPOSITION, FOR USE IN PREVENTING OR TREATING PI3 KINASE RELATED DISEASES, COMPRISING SAME AS ACTIVE INGREDIENT” (BORYUNG PHARMACEUTICAL CO., LTD, priority 2019, published 2023):
# Experiments:
# [1] = biological target: PI3K-δ (PI3K(p1108/p857) (h)) (Homo sapiens, UniProt O00329); assay: Evaluation of inhibitory activity against PI3K-δ (HTRF kinase assay); assay type: biochemical; settings: for inhibition at 0.01 µM: compound concentration 0.01 μM, read-out: EXP_VALUE(% Inhibition) PI3K-δ 0.01 μM; for inhibition at 0.1 µM: compound concentration 0.1 μM, read-out: EXP_VALUE(% Inhibition) PI3K-δ 0.1 μM
# PI3K-δ (PI3K(p1108/p857) (h)), sequence (O00329 whole entry, the tested form may be a part): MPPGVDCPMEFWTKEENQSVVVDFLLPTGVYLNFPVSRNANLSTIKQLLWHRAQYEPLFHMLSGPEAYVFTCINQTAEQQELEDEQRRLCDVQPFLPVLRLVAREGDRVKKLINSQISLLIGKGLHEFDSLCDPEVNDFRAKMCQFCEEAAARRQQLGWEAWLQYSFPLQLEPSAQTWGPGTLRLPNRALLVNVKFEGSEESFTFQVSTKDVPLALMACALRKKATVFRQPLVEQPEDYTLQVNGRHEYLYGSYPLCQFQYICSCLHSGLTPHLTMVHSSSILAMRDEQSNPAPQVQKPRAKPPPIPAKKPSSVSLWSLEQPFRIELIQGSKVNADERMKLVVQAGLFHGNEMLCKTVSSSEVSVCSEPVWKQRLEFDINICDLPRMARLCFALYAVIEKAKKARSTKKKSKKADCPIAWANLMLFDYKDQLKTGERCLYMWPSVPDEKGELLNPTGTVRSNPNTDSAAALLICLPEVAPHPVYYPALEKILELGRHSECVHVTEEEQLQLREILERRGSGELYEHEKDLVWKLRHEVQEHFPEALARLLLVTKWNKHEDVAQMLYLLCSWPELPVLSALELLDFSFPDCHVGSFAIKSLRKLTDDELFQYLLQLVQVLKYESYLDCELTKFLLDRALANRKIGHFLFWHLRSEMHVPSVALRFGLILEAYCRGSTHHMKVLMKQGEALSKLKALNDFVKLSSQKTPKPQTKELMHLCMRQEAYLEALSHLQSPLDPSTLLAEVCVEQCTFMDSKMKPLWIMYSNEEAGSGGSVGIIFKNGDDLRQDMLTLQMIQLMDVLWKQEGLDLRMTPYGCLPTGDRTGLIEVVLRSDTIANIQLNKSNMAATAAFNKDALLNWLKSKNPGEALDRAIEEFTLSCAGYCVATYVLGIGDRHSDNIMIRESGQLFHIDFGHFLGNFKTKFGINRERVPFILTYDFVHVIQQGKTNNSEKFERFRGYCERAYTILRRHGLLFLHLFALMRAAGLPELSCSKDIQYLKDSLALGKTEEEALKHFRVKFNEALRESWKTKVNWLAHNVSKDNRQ
# PI3K-δ (PI3K(p1108/p857) (h)), sequence (P27986 whole entry partner, the tested form may be a part): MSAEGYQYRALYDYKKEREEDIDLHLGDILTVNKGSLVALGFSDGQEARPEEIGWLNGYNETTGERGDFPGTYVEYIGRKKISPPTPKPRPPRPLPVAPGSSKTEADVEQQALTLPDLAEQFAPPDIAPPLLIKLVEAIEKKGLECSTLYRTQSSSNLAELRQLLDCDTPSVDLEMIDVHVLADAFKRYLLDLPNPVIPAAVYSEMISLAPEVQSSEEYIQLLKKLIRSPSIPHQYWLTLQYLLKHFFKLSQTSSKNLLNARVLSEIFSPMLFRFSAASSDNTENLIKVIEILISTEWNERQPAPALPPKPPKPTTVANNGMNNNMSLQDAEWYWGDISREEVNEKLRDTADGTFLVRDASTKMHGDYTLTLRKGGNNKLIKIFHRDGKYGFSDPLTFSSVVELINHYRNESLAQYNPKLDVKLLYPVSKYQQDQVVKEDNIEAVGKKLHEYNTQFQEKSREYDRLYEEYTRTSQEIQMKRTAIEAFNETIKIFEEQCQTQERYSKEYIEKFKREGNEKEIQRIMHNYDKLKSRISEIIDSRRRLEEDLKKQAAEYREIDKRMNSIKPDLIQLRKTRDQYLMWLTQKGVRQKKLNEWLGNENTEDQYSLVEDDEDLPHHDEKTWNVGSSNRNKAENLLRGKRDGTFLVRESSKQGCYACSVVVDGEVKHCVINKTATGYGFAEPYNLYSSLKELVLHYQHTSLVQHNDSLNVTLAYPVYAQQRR
# Summary of the method: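 HTRF read-out (665/620 nm ratio ×10000) used Eu-labelled anti-GST, GST-tagged GRP1 PH domain and streptavidin-allophycocyanin after EDTA/PIP3 stop.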
# DNA-PK(h) = DNA-PK(h) (Homo sapiens, UniProt P78527); assay: Evaluation of inhibitory activity against DNA-PK (HTRF kinase assay, GST-cMyc-p53 substrate); assay type: biochemical; settings: for inhibition at 0.01 µM: compound concentration 0.01 μM, read-out: EXP_VALUE(% Inhibition) DNA-PK(h) 0.01 μM; for inhibition at 0.1 µM: compound concentration 0.1 μM, read-out: EXP_VALUE(% Inhibition) DNA-PK(h) 0.1 μM
# Summary of the method: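 Human DNA-PK with 50 μM GST-cMyc-p53 substrate; reaction started with Mg/ATP, run 30 min at room temperature, stopped with EDTA. Phospho-Ser15 p53 detected by HTRF (Eu anti-phospho-Ser15, d2 anti-GST), signal = 10000×(Em 665/Em 620).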
inhibition at 0.01 µM [1] [%],inhibition at 0.1 µM [1] [%],inhibition at 0.01 µM (DNA-PK(h)) [%],inhibition at 0.1 µM (DNA-PK(h)) [%],Compound
99,112,79,99,"CCOC(=O)c1cccc2c(Cl)c([C@H](C)Nc3ncnc4[nH]ccc(=O)c34)n(-c3ccccc3)c(=O)c12 [Example 292, ethyl(S)-4-chloro-1-oxo-3-(1-((5-oxo-5,8-dihydropyrido[2,3-d]pyrimidin-4-yl)amino)ethyl)-2-phenyl-1,2-dihydroisoquinoline-8-carboxylate]"
24,,1,,"C[C@H](Nc1ncnc2[nH]ccc(=O)c12)c1c(Cl)c2cccc(-c3nc(N)nc(N)n3)c2c(=O)n1-c1ccccc1 [Example 293, (S)-4-((1-(4-chloro-8-(4,6-diamino-1,3,5-triazin-2-yl)-1-oxo-2-phenyl-1,2-dihydroisoquinolin-3-yl)ethyl)amino)pyrido[2,3-d]pyrimidin-5(8H)-one]"
65,,49,,"C[C@H](Nc1ncnc2[nH]ccc(=O)c12)c1c(Cl)c2cccc(N)c2c(=O)n1-c1ccccc1 [Example 294, (S)-4-((1-(8-amino-4-chloro-1-oxo-2-phenyl-1,2-dihydroisoquinolin-3-yl)ethyl)amino)pyrido[2,3-d]pyrimidin-5(8H)-one]"
24,,56,,"C[C@H](Nc1ncnc2[nH]ccc(=O)c12)c1c(Cl)c2cccc(NC(=O)C(C)(C)C)c2c(=O)n1-c1ccccc1 [Example 295, (S)—N-(4-chloro-1-oxo-3-(1-((5-oxo-5,8-dihydropyrido[2,3-d]pyrimidin-4-yl)amino)ethyl)-2-phenyl-1,2-dihydroisoquinolin-8-yl) pivalamide]"
46,,30,,"CC(=O)Nc1cccc2c(Cl)c([C@H](C)Nc3ncnc4[nH]ccc(=O)c34)n(-c3ccccc3)c(=O)c12 [Example 296, (S)—N-(4-chloro-1-oxo-3-(1-((5-oxo-5,8-dihydropyrido[2,3-d]pyrimidin-4-yl)amino)ethyl)-2-phenyl-1,2-dihydroisoquinolin-8-yl) acetamide]"
9,,45,,"CCCCC(=O)Nc1cccc2c(Cl)c([C@H](C)Nc3ncnc4[nH]ccc(=O)c34)n(-c3ccccc3)c(=O)c12 [Example 297, (S)—N-(4-chloro-1-oxo-3-(1-((5-oxo-5,8-dihydropyrido[2,3-d]pyrimidin-4-yl)amino)ethyl)-2-phenyl-1,2-dihydroisoquinolin-8-yl)pentanamide]"
11,,50,,"C[C@H](Nc1ncnc2[nH]ccc(=O)c12)c1c(Cl)c2cccc(NC(=O)C3CCC3)c2c(=O)n1-c1ccccc1 [Example 298, (S)—N-(4-chloro-1-oxo-3-(1-((5-oxo-5,8-dihydropyrido[2,3-d]pyrimidin-4-yl)amino)ethyl)-2-phenyl-1,2-dihydroisoquinolin-8-yl)cyclobutanecarboxamide]"
13,,17,,"C[C@H](Nc1ncnc2[nH]ccc(=O)c12)c1c(Cl)c2cccc(NC(=O)c3ccccc3)c2c(=O)n1-c1ccccc1 [Example 299, (S)—N-(4-chloro-1-oxo-3-(1-((5-oxo-5,8-dihydropyrido[2,3-d]pyrimidin-4-yl)amino)ethyl)-2-phenyl-1,2-dihydroisoquinolin-8-yl)benzamide]"
63,,44,,"C[C@H](Nc1ncnc2[nH]ccc(=O)c12)c1c(Cl)c2cccc(NS(C)(=O)=O)c2c(=O)n1-c1ccccc1 [Example 300, (S)—N-(4-chloro-1-oxo-3-(1-((5-oxo-5,8-dihydropyrido[2,3-d]pyrimidin-4-yl)amino)ethyl)-2-phenyl-1,2-dihydroisoquinolin-8-yl) methanesulfonamide]"
41,,14,,"C[C@H](Nc1ncnc2[nH]ccc(=O)c12)c1c(Cl)c2cccc(NS(=O)(=O)C3CC3)c2c(=O)n1-c1ccccc1 [Example 301, (S)—N-(4-chloro-1-oxo-3-(1-((5-oxo-5,8-dihydropyrido[2,3-d]pyrimidin-4-yl)amino)ethyl)-2-phenyl-1,2-dihydroisoquinolin-8-yl)cyclopropanesulfonamide]"
16,,16,,"C[C@H](Nc1ncnc2[nH]ccc(=O)c12)c1c(Cl)c2cccc(NS(=O)(=O)CC(F)(F)F)c2c(=O)n1-c1ccccc1 [Example 302, (S)—N-(4-chloro-1-oxo-3-(1-((5-oxo-5,8-dihydropyrido[2,3-d]pyrimidin-4-yl)amino)ethyl)-2-phenyl-1,2-dihydroisoquinolin-8-yl)-2,2,2-trifluoroethane-1-sulfonamide]"
12,,6,,"C[C@H](Nc1ncnc2[nH]ccc(=O)c12)c1c(Cl)c2cccc(NS(=O)(=O)c3ccc(F)cc3)c2c(=O)n1-c1ccccc1 [Example 303, (S)—N(4-chloro-1-oxo-3-(1-((5-oxo-5,8-dihydropyrido[2,3-d]pyrimidin-4-yl)amino)ethyl)-2-phenyl-1,2-dihydroisoquinolin-8-yl)-4-fluorobenzenesulfonamide]"
71,101,27,71,"C[C@H](Nc1ncnc2[nH]ccc(=O)c12)c1c(Cl)c2cccc(C#Cc3cccs3)c2c(=O)n1-c1ccccc1 [Example 304, (S)-4-((1-(4-chloro-1-oxo-2-phenyl-8-(thiophen-2-ylethynyl)-1,2-dihydroisoquinolin-3-yl)ethyl)amino)pyrido[2,3-d]pyrimidin-5(8H)-one]"
83,99,20,62,"C[C@H](Nc1ncnc2[nH]ccc(=O)c12)c1c(Cl)c2cccc(C#Cc3ccccc3)c2c(=O)n1-c1ccccc1 [Example 305, (S)-4-((1-(4-chloro-1-oxo-2-phenyl-8-(phenylethynyl)-1,2-dihydroisoquinolin-3-yl)ethyl)amino)pyrido[2,3-d]pyrimidin-5(8H)-one]"
57,105,75,95,"C[C@H](Nc1ncnc2[nH]ccc(=O)c12)c1c(Cl)c2cccc(C#Cc3ccncc3)c2c(=O)n1-c1ccccc1 [Example 306, (S)-4-((1-(4-chloro-1-oxo-2-phenyl-8-(pyridin-4-ylethynyl)-1,2-dihydroisoquinolin-3-yl)ethyl)amino)pyrido[2,3-d]pyrimidin-5(8H)-one]"
83,114,80,95,"C[C@H](Nc1ncnc2[nH]ccc(=O)c12)c1c(Cl)c2cccc(C#Cc3cccnc3)c2c(=O)n1-c1ccccc1 [Example 307, (S)-4-((1-(4-chloro-1-oxo-2-phenyl-8-(pyridin-3-ylethynyl)-1,2-dihydroisoquinolin-3-yl)ethyl)amino)pyrido[2,3-d]pyrimidin-5(8H)-one]"
28.4,60.3,21.5,70.3,"C[C@H](Nc1ncnc2[nH]ccc(=O)c12)c1c(Cl)c2cccc(C#Cc3ccccn3)c2c(=O)n1-c1ccccc1 [Example 308, (S)-4-((1-(4-chloro-1-oxo-2-phenyl-8-(pyridin-2-ylethynyl)-1,2-dihydroisoquinolin-3-yl)ethyl)amino)pyrido[2,3-d]pyrimidin-5(8H)-one]"
42.4,65.6,23.2,64.8,"C[C@H](Nc1ncnc2[nH]ccc(=O)c12)c1c(Cl)c2cccc(C#Cc3cnn(C)c3)c2c(=O)n1-c1ccccc1 [Example 309, (S)-4-((1-(4-chloro-8-((1-methyl-1H-pyrazol-4-yl)ethynyl)-1-oxo-2-phenyl-1,2-dihydroisoquinolin-3-yl)ethyl)amino)pyrido[2,3-d]pyrimidin-5(8H)-one]"
31.5,20.4,-2.5,3.2,"C[C@H](Nc1ncnc2[nH]ccc(=O)c12)c1c(Cl)c2cccc(C#Cc3ccc(-c4ccccc4)cc3)c2c(=O)n1-c1ccccc1 [Example 310, (S)-4-((1-(8-([1,1′-biphenyl]-4-ylethynyl)-4-chloro-1-oxo-2-phenyl-1,2-dihydroisoquinolin-3-yl)ethyl)amino)pyrido[2,3-d]pyrimidin-5(8H)-one]"
18.2,39.5,47.1,82.2,"C[C@H](Nc1ncnc2[nH]ccc(=O)c12)c1c(Cl)c2cccc(C#Cc3ccnn3C)c2c(=O)n1-c1ccccc1 [Example 311, (S)-4-((1-(4-chloro-8-((1-methyl-1H-pyrazol-5-yl)ethynyl)-1-oxo-2-phenyl-1,2-dihydroisoquinolin-3-yl)ethyl)amino)pyrido[2,3-d]pyrimidin-5(8H)-one]"
46.8,77.1,39.8,84.3,"C[C@H](Nc1ncnc2[nH]ccc(=O)c12)c1c(Cl)c2cccc(C#Cc3nccs3)c2c(=O)n1-c1ccccc1 [Example 312, (S)-4-((1-(4-chloro-1-oxo-2-phenyl-8-(thiazol-2-ylethynyl)-1,2-dihydroisoquinolin-3-yl)ethyl)amino)pyrido[2,3-d]pyrimidin-5(8H)-one]"
